Assay results as given in patent US20260364068A1, “ANTIVIRAL USE OF HETEROARYL DERIVATIVE COMPOUND” (UIF (University Industry Foundation), Yonsei University, priority 2022, published 2026).
Read-outs that look alike come from different tables or passages of the source.

Legend:
Type in all cases: cell-based
[1] = biological target: T1, human ANO6 (variant 5) (Homo sapiens, UniProt Q4KMQ2); assay: Lact C2 assay (phosphatidylserine externalization scramblase function); details: FRT cells expressing human ANO6, ionomycin 10 μM, read-out: % Inhibition (phosphatidylserine externalization inhibitory activity); for inhibition at 0.05 µM: 50 nM
T1 construct: expressed in transfected cells; host or cells: Fisher rat thyroid (FRT) cells
T1 sequence (Q4KMQ2 1-931 isoform Q4KMQ2-2): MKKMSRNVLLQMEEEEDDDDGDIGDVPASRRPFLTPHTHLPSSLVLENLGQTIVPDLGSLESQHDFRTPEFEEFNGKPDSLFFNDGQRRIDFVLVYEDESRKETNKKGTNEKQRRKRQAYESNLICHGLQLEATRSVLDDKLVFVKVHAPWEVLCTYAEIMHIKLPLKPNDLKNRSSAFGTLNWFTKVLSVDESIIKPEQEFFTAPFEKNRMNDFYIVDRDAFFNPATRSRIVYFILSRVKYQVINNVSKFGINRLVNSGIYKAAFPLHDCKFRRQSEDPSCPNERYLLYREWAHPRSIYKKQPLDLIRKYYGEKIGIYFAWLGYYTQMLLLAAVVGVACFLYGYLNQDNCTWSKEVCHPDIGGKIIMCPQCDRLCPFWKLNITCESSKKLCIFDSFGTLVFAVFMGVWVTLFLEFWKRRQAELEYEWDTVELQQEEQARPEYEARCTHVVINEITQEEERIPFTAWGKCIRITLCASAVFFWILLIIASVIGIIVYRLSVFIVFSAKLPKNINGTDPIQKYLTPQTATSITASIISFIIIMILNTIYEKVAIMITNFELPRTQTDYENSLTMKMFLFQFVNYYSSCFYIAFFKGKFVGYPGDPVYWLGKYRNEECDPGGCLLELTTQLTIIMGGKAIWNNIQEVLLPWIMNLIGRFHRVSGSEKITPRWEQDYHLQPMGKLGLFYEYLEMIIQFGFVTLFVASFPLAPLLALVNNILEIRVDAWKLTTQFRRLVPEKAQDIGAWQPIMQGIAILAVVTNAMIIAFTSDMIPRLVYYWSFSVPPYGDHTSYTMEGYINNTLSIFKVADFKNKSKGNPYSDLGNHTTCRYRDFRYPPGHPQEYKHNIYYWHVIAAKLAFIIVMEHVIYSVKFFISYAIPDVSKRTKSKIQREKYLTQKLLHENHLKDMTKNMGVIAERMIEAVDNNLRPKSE
Description: Experimental Example 2: Lact C2 Assay (Measuring Phosphatidylserine Externalization Scramblase Function)
Ionomycin (Alomonelab, cat. #I-700), DAPI (Sigma-Aldrich, cat. #D8417), paraformaldehyde (Biosesang, cat. #P2031), Lionheart FX automated fluorescence microscope (BioTek), Gen5™ software program (BioTek), and Image J analysis software program.
Fisher rat thyroid (FRT) cells expressing human ANO6 (variant 5; GenBank accession no. NP_001191732.1) were cultured at 37 °C under 5% CO2 conditions in DMEM/Ham's F-12 (1:1) medium supplemented with 10% Fetal Bovine Serum, 2 mM […], 100 units/mL penicillin, and 100 μg/mL streptomycin.
Fischer Rat Thyroid (FRT) cells (2×10^4 cells/well) expressing human ANO6 (variant 5) were cultured in a 96-well microplate for 24 hours. After the incubation, the cells were treated with compounds dissolved in DMSO to 1% v/v in each well at each concentration (50 nM, 100 nM, and 1 μM) and reacted for 10 minutes. Thereafter, each well was treated with ionomycin to a final concentration of 10 μM, allowed to react for 10 minutes, and then washed with 200 μL PBS. After washing, each well was treated with 50 μL of Lactadherin-C2 (Lact-C2)-GFP mixed in DMEM medium to a final concentration of 500 nM to stain phosphatidylserine, and cultured at 37 °C for 10 minutes. After completion of the reaction, the cells were washed with 200 μL PBS, and fixed with 4% paraformaldehyde for 5 minutes at room temperature. For morphological analysis, DAPI solution was added, and the cells were incubated for 15 minutes, followed by washing with PBS. The fluorescence intensity of Lact-C2-GFP bound to phosphatidylserine on the cell surface was measured using an automated fluorescence microscope. For quantitative analysis of the fluorescence intensity of Lact-C2-GFP, BioTek Gen5™ software and Image J analysis software programs were used.
Phosphatidylserine externalization inhibitory activity (%) by the compound was calculated through the following analysis method. Specifically, the background fluorescence value was subtracted from the measured Lact-C2-GFP fluorescence value, and the fluorescence value of the ionomycin non-treatment group and the ionomycin-treatment group in the same row where each test group was located in a 96-well microplate were calculated. In order to calculate the inhibitory activity (%) by the compound, the relative inhibitory activity was calculated by setting the compound and ionomycin non-treatment group to 100% inhibitory activity and the ionomycin alone treatment group to 0% inhibitory activity. To derive the results, the test was repeated three times, and the average values of the results were classified according to the range below and shown in Table 4 below (A: >60% inhibition, B: 30 to 60% inhibition, N/A: no test).

[2] = system: Severe Acute Respiratory Syndrome Coronavirus Type 2; assay: microbe, parasite or virus in culture; details: Calu-3, 10 uM, virus strain NCCP-43344, 48 hours, read-out: Virus replication inhibition efficacy
[3] = Cell viability measurement (MTS), Calu-3 cells; details: human
How it was run: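 Calu-3 cells at about 20% confluency treated with compounds at 1, 3 and 10 μM (0.5% v/v DMSO) for 48 h at 37 °C. MTS added for 1 h; A490 minus A690 background, normalized to DMSO control as 100%; mean of 2–6 repeats, binned into viability ranges.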

[4] = Cell viability measurement (MTS), Vero cells; details: monkey
Description: Experimental Example 3: Cell Viability Measurement
Vero cell line (VERO01WCB-1201, Ministry of Food and Drug Safety, Republic of Korea), Calu-3 cell line (KCLB #30055, Korea Cell Line Bank (KCLB), Republic of Korea), CellTiter 96® AQueous One Solution Cell Proliferation Assay kit (Promega, cat. #G3582), and Infinite M200 microplate reader (Tecan).
Vero cells were cultured at 37 °C and 5% CO2 in DMEM medium supplemented with 10% fetal bovine serum, 100 units/mL penicillin, and 100 μg/mL streptomycin.
Vero cells or Calu-3 cells were seeded in 96-well microplates and cultured for 24 hours until the cell confluency reached 20%. After the incubation, compounds were treated in DMSO at concentrations (1, 3, and 10 μM) to reach 0.5% v/v in each well, and reacted at 37 °C for 48 hours. Into each well of the incubated 96-well microplate, 3-(4,5-dimethylthiazol-2-yl)-5-(3-carboxymethoxyphenyl)-2-(4-sulfophenyl)-2H-tetrazolium salt (MTS) assay solution [CellTiter 96® AQueous One Solution Cell Proliferation Assay kit (Promega)] mixed with DMEM medium at a ratio of 1:5, was dispensed at 100 μL/well and incubated at 37 °C for 1 hour. The 490 nm and 690 nm absorbance was then measured using an Infinite M200 instrument.
The cell viability (also, referred to as cell survival rate) (%) by compound treatment was calculated using the following analysis method. The 690 nm background absorbance value was subtracted from the measured 490 nm absorbance value. Then, to obtain the cell viability of each test group, the viability of the DMSO-treated group that was not treated with the compound was set to 100% and then the relative viability 1 of each compound was calculated. Two to six repeated tests were performed to obtain the results, and the mean values of the results were categorized into the following ranges and shown in Table 5 below (A: 80% survived, B: 50-80% survived, N/A: not tested)

[5] = system: Severe Acute Respiratory Syndrome Coronavirus Type 2; assay: microbe, parasite or virus in culture; details: Vero, 10 uM, virus strain NCCP-43344, 48 hours, read-out: Virus replication inhibition efficacy

| SMILES | inhibition at 1 µM [1] | viability at 48 h, 10 µM [3] | inhibition at 0.05 µM [1] | other results |
| --- | --- | --- | --- | --- |
| FC(F)(F)c1ccc2nc(-c3cccc(NC4CCC(c5cccnn5)CC4)c3)[nH]c2c1 (mixture of isomers) [Example 124, N-(4-(pyridazin-3-yl)cyclohexyl)-3-(6-(trifluoromethyl)-1H-benzo[d]imidazol-2-yl)aniline] | 30 to 60% | – | – | – |
| FC(F)(F)c1ccc2nc(-c3cccc(Nc4ccc(-c5cccnn5)cc4)c3)[nH]c2c1 [Example 23, N-(4-(pyridazin-3-yl)phenyl)-3-(6-(trifluoromethyl)-1H-benzo[d]imidazol-2-yl)aniline] | – | – | – | inhibition at 10 µM [2]: > 60%; viability at 48 h, 1 µM [3]: > 80%; viability at 48 h, 3 µM [3]: 50 to 80%; viability at 48 h, 1 µM [4]: > 80%; viability at 48 h, 3 µM [4]: > 80%; inhibition at 10 µM [5]: > 60% |
| FC(F)(F)c1ccc2nc(-c3cccc(Nc4ccc(-c5ccncn5)cc4)c3)[nH]c2c1 [Example 24, N-(4-(pyrimidin-4-yl)phenyl)-3-(6-(trifluoromethyl)-1H-benzo[d]imidazol-2-yl)aniline] | – | – | – | inhibition at 10 µM [2]: > 60%; viability at 48 h, 1 µM [3]: > 80%; viability at 48 h, 1 µM [4]: > 80%; viability at 48 h, 3 µM [4]: > 80%; inhibition at 10 µM [5]: > 60% |
| c1cnc(-c2ccc(Nc3cccc(-c4nc5ccccc5[nH]4)c3)cc2)nc1 [Example 26, N-[3-(1H-benzo[d]imidazol-2-yl)phenyl]-4-(pyrimidin-2-yl)aniline] | – | – | – | inhibition at 10 µM [2]: > 60%; viability at 48 h, 1 µM [3]: > 80%; viability at 48 h, 3 µM [3]: 50 to 80%; viability at 48 h, 1 µM [4]: > 80%; viability at 48 h, 10 µM ([4]; 10 μM): > 80%; inhibition at 10 µM [5]: > 60% |
| Fc1ccc2nc(-c3cccc(Nc4ncc(-c5cccnn5)cn4)c3)[nH]c2c1 [Example 51, N-(3-(6-fluoro-1H-benzo[d]imidazol-2-yl)phenyl)-5-(pyridazin-3-yl)pyrimidin-2-amine] | – | > 80% | 30 to 60% | viability at 48 h, 1 µM [3]: > 80%; viability at 48 h, 3 µM [3]: > 80% |
| COc1cc2nc(-c3cccc(Nc4ncc(-c5cccnn5)cn4)c3)[nH]c2cc1F [Example 121, N-[3-(6-fluoro-5-methoxy-1H-benzo[d]imidazol-2-yl)phenyl]-5-pyridazin-3-yl-pyrimidin-2-amine] | 30 to 60% | – | – | – |
| Fc1cc2nc(-c3cccc(Nc4ncc(-c5ccccn5)cn4)c3)[nH]c2cc1F [Example 313, N-(3-(5,6-difluoro-1H-benzo[d]imidazol-2-yl)phenyl)-5-(pyridin-2-yl)pyrimidin-2-amine] | > 60% | > 80% | > 60% | – |
| Fc1ccc2nc(-c3cccc(Nc4cnc(-c5ccccn5)cn4)c3)[nH]c2c1 [Example 323, N-(3-(6-fluoro-1H-benzo[d]imidazol-2-yl)phenyl)-5-(pyridin-2-yl)pyrazin-2-amine] | > 60% | > 80% | 30 to 60% | – |
| Clc1ccc2nc(-c3cccc(Nc4cnc(-c5ccccn5)cn4)c3)[nH]c2c1 [Example 324, N-(3-(6-chloro-1H-benzo[d]imidazol-2-yl)phenyl)-5-(pyridin-2-yl)pyrazin-2-amine] | > 60% | > 80% | 30 to 60% | – |
| FC(F)(F)Oc1ccc2nc(-c3cccc(Nc4cnc(-c5ccccn5)cn4)c3)[nH]c2c1 [Example 325, 5-(pyridin-2-yl)-N-(3-(6-(trifluoromethoxy)-1H-benzo[d]imidazol-2-yl)phenyl)pyrazin-2-amine] | > 60% | – | – | – |
| FC(F)(F)c1cc2[nH]c(-c3cccc(Nc4cnc(-c5ccccn5)cn4)c3)nc2cn1 [Example 328, 5-(pyridin-2-yl)-N-(3-(6-(trifluoromethyl)-1H-imidazo[4,5-c]pyridin-2-yl)phenyl)pyrazin-2-amine] | > 60% | – | – | – |
| FC(F)Oc1cc2[nH]c(-c3cccc(Nc4ncc(-c5ccccn5)cn4)c3)nc2cn1 [Example 329, N-(3-(6-(difluoromethoxy)-1H-imidazo[4,5-c]pyridin-2-yl)phenyl)-5-(pyridin-2-yl)pyrimidin-2-amine] | > 60% | 50 to 80% | > 60% | – |
| Fc1cc2[nH]c(-c3cccc(Nc4cnc(-c5ccccn5)cn4)c3)nc2cn1 [Example 330, N-(3-(6-fluoro-1H-imidazo[4,5-c]pyridin-2-yl)phenyl)-5-(pyridin-2-yl)pyrazin-2-amine] | > 60% | > 80% | – | – |
| FC(F)Oc1cc2[nH]c(-c3cccc(Nc4ccc(-c5cccnn5)cc4)c3)nc2cn1 [Example 331, 3-(6-(difluoromethoxy)-1H-imidazo[4,5-c]pyridin-2-yl)-N-(4-(pyridazin-3-yl)phenyl)aniline] | > 60% | > 80% | 30 to 60% | – |
| FC(F)Oc1ccc2nc(-c3cccc(Nc4ccc(-c5cccnn5)cc4)c3)[nH]c2c1 [Example 335, 3-(6-(difluoromethoxy)-1H-benzo[d]imidazol-2-yl)-N-(4-(pyridazin-3-yl)phenyl)aniline] | > 60% | – | > 60% | – |
